Legend:
[1] = target: Serine/threonine-protein kinase pim-3 (Homo sapiens) (UniProt Q86V86)
[2] = target: T1, Serine/threonine-protein kinase VRK3 (Homo sapiens) (UniProt Q8IV63)
T1 sequence (whole entry): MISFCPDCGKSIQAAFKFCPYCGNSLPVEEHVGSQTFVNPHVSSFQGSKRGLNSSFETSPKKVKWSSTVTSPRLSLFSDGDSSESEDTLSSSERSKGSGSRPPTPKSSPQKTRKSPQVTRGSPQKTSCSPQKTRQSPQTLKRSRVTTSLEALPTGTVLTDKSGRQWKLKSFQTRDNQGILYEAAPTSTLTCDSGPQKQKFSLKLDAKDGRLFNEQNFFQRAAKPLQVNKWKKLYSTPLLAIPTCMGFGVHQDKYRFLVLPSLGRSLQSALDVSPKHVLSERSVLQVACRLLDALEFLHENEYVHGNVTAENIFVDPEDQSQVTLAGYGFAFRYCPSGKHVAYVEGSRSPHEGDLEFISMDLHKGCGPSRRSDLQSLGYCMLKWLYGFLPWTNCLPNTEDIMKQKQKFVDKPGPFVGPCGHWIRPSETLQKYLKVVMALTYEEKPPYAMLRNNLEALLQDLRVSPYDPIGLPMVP

[3] = target: Serine/threonine-protein kinase VRK2 (Homo sapiens) (UniProt Q86Y07)
[4] = target: Serine/threonine-protein kinase 16 (Homo sapiens) (UniProt O75716)
[5] = target: Mitogen-activated protein kinase 11 (Homo sapiens, UniProt Q15759)
[6] = target: T2, Serine/threonine-protein kinase 4 (Homo sapiens) (UniProt Q13043)
T2 sequence (whole entry): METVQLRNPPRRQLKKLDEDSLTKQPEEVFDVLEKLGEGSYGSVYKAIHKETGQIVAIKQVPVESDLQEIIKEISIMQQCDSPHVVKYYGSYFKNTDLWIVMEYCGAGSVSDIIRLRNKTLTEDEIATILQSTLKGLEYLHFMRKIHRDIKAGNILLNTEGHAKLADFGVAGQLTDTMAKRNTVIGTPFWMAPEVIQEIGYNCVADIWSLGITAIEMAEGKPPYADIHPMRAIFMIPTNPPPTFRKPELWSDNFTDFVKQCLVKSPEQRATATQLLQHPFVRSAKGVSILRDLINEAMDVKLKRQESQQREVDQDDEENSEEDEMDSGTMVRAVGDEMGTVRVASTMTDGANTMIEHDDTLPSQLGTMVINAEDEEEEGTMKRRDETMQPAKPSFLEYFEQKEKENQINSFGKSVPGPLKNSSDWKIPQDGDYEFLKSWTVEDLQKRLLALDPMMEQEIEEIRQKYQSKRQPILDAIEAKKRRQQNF

[7] = target: Calcium/calmodulin-dependent protein kinase type 1G (Homo sapiens) (UniProt Q96NX5)
[8] = target: T3, Serine/threonine-protein kinase Nek2 (Homo sapiens) (UniProt P51955)
T3 sequence (whole entry): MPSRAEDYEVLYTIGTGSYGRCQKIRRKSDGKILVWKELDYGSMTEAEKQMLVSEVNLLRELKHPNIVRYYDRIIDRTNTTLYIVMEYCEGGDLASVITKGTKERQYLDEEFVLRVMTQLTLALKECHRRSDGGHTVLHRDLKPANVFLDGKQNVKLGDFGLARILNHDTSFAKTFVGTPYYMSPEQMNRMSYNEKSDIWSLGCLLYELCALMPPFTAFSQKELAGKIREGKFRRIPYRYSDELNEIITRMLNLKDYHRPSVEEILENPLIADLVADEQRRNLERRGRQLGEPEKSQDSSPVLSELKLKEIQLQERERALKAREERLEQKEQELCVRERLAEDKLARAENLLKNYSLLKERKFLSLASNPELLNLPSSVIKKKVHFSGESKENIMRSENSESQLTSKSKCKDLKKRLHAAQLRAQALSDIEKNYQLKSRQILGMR

[9] = target: Cyclin-dependent kinase-like 1 (Homo sapiens) (UniProt Q00532)
[10] = target: Cyclin-dependent kinase 16 (Homo sapiens) (UniProt Q00536)
[11] = target: Tyrosine-protein kinase JAK1 (Homo sapiens) (UniProt P23458)
[12] = target: Ribosomal protein S6 kinase alpha-3 (Homo sapiens) (UniProt P51812)
[13] = target: Serine/threonine-protein kinase PLK1 (Homo sapiens) (UniProt P53350)
[14] = target: Serine/threonine-protein kinase pim-2 (Homo sapiens, UniProt Q9P1W9)
[15] = target: T4, Calcium/calmodulin-dependent protein kinase type IV (Homo sapiens) (UniProt Q16566)
T4 sequence (whole entry): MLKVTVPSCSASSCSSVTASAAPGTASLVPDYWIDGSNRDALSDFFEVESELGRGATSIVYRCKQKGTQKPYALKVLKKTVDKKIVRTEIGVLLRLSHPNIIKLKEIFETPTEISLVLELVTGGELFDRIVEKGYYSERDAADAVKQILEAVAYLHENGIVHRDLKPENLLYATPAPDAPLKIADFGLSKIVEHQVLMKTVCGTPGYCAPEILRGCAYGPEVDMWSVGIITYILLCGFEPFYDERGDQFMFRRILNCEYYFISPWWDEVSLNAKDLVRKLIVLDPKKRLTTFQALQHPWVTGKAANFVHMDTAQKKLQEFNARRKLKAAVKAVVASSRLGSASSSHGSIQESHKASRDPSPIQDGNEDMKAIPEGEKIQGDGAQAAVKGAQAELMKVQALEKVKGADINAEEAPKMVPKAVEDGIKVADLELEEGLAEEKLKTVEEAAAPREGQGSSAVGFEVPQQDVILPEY

[16] = target: STE20-like serine/threonine-protein kinase (Homo sapiens) (UniProt Q9H2G2)
[17] = target: Serine/threonine-protein kinase 26 (Homo sapiens) (UniProt Q9P289)
[18] = target: Serine/threonine-protein kinase PAK 4 (Homo sapiens) (UniProt O96013)
[19] = target: Serine/threonine-protein kinase 10 (Homo sapiens) (UniProt O94804)
[20] = target: Serine/threonine-protein kinase pim-1 (Homo sapiens) (UniProt P11309)
Chain of Serine/threonine-protein kinase pim-1 (Homo sapiens) (P11309 whole entry, looked up): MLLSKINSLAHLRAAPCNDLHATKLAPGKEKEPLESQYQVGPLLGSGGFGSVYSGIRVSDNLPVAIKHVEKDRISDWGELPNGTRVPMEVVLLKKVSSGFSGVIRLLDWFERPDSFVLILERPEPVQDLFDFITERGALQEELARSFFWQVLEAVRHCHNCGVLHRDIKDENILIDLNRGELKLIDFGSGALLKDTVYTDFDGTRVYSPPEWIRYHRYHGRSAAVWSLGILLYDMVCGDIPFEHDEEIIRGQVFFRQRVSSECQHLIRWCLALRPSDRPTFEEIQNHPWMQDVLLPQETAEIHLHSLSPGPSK

Chain of STE20-like serine/threonine-protein kinase (Homo sapiens) (Q9H2G2 whole entry, looked up): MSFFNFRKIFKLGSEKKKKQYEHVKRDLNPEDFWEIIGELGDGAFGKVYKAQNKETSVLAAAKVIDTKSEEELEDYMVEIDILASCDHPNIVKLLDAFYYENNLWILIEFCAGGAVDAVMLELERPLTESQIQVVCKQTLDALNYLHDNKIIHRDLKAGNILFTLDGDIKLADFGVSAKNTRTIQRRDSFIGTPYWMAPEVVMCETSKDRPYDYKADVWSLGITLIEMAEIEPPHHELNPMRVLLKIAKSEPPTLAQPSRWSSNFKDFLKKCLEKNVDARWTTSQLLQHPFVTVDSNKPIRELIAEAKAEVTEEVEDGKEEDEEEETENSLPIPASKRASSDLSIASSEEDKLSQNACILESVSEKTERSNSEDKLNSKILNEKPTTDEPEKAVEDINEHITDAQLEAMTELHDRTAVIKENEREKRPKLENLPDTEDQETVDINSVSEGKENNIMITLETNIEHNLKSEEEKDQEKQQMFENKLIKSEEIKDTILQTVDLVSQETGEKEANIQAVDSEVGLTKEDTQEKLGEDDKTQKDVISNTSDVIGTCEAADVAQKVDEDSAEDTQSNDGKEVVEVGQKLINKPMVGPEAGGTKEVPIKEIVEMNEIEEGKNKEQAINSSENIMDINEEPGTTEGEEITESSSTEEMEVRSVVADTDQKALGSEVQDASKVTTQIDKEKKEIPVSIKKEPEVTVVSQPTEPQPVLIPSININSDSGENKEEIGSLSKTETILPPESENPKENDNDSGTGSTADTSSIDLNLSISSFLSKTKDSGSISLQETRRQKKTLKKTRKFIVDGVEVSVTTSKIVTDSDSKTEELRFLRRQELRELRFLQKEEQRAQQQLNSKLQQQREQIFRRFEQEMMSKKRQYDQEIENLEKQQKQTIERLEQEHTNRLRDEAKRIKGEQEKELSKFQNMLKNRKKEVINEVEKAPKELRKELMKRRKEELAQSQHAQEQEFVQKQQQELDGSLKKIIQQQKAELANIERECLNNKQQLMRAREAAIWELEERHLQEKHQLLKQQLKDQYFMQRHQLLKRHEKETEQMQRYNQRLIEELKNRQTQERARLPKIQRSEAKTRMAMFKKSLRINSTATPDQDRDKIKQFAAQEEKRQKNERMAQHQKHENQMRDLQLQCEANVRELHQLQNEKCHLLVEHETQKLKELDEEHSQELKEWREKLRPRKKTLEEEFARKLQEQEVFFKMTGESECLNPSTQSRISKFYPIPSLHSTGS
Chain of Serine/threonine-protein kinase pim-2 (Q9P1W9 whole entry, looked up): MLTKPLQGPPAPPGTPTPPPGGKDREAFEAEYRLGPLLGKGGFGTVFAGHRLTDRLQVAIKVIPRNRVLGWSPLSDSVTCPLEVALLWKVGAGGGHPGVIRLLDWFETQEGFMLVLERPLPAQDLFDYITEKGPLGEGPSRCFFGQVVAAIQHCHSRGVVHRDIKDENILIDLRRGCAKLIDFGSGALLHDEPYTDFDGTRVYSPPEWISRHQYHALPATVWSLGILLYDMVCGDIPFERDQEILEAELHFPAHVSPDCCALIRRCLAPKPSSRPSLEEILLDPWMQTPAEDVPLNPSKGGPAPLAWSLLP
Chain of Cyclin-dependent kinase-like 1 (Homo sapiens) (Q00532 whole entry): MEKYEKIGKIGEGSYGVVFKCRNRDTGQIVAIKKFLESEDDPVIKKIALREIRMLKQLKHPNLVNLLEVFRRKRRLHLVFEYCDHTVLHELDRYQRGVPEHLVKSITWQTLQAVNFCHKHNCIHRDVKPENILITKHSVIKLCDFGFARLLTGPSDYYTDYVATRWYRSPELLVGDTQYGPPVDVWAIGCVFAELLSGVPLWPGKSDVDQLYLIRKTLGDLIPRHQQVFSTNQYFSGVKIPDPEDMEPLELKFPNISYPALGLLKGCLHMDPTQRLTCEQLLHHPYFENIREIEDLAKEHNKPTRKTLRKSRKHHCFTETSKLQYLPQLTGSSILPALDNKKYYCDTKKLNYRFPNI
Chain of Cyclin-dependent kinase 16 (Homo sapiens) (Q00536 whole entry): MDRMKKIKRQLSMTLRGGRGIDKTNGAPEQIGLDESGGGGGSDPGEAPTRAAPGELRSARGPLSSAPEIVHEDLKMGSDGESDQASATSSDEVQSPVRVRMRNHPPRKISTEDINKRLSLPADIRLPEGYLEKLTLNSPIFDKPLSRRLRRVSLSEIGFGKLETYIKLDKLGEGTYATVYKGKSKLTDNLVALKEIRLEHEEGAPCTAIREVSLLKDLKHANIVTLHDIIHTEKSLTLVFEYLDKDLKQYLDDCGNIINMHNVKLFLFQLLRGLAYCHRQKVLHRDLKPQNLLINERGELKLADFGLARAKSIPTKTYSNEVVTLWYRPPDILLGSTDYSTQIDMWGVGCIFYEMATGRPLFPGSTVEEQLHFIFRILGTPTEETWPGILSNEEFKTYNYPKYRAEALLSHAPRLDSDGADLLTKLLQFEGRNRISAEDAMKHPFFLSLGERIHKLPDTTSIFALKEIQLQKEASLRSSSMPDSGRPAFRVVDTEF
Chain of Tyrosine-protein kinase JAK1 (Homo sapiens) (P23458 whole entry): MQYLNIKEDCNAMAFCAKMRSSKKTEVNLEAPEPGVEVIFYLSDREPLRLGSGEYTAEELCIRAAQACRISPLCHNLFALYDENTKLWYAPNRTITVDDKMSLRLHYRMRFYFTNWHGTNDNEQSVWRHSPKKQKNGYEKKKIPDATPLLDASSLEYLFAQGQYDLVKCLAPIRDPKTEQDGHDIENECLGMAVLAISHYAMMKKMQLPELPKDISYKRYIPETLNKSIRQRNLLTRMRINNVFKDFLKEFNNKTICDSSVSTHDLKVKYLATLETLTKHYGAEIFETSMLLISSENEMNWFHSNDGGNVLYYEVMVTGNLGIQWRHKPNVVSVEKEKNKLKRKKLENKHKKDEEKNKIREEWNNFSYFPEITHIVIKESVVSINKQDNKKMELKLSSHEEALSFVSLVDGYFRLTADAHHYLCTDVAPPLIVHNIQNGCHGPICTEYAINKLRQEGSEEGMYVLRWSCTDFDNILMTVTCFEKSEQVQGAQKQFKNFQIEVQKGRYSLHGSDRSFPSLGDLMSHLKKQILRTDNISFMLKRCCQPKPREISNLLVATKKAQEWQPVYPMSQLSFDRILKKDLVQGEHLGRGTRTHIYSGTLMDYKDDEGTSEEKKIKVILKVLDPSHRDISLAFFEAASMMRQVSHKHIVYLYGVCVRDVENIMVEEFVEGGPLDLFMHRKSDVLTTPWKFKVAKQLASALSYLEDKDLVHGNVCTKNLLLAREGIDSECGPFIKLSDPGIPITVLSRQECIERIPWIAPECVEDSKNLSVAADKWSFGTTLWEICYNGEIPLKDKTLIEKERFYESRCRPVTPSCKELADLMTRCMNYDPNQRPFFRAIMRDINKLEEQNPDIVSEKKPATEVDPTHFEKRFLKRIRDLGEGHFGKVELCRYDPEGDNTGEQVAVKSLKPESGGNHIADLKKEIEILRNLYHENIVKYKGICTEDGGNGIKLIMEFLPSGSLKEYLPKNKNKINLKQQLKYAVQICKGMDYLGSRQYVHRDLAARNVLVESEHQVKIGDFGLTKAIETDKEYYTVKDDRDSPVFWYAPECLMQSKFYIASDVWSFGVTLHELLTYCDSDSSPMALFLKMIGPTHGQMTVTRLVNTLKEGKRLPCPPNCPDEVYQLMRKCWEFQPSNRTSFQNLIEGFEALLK
Chain of Serine/threonine-protein kinase PLK1 (Homo sapiens) (P53350 whole entry): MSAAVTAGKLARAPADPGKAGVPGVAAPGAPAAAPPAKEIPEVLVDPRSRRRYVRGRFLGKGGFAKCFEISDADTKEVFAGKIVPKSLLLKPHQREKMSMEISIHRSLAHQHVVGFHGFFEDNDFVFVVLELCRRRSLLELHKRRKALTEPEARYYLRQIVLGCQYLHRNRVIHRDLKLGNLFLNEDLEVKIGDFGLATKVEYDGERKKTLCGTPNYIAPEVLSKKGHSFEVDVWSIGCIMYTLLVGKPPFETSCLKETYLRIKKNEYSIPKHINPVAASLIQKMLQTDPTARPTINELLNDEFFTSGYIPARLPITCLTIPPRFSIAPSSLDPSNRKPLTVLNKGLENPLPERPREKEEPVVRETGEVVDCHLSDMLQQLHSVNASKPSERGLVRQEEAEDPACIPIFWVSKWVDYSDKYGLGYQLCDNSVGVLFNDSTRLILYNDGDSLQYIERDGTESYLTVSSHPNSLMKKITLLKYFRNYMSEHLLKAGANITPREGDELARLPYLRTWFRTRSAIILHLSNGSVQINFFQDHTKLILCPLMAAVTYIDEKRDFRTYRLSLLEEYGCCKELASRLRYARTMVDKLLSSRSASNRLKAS

Structure (SMILES) | ΔTm [1] | ΔTm [2] | ΔTm [3] | ΔTm [4] | ΔTm [5] | ΔTm [6] | ΔTm [7] | ΔTm [8] | ΔTm [9] | ΔTm [10] | ΔTm [11] | ΔTm [12] | ΔTm [13] | ΔTm [14] | ΔTm [15] | ΔTm [16] | ΔTm [17] | ΔTm [18] | ΔTm [19] | ΔTm [20]
COc1cc2ncnc(Nc3ccc(F)c(Cl)c3)c2cc1OCCCN1CCOCC1 | -0.2 °C | 0.6 °C | 0.3 °C | 3.1 °C | 0.8 °C | 1.6 °C | 1 °C | 1.1 °C | 0.2 °C | -0.3 °C | 1.2 °C | 5.3 °C | 1.2 °C | 0.6 °C | 0.6 °C | 7.8 °C | 0 °C | 1.2 °C | 0 °C | 3.4 °C
O=c1c(-c2ccc(O)cc2)coc2cc(O)cc(O)c12 | 3 °C | 1.2 °C | 0.1 °C | 4.3 °C | 0 °C | 1.5 °C | -0.1 °C | -0.1 °C | -0.1 °C | -0.6 °C | -0.2 °C | 1.5 °C | 1.4 °C | 3.1 °C | -0.8 °C | 2.4 °C | 1 °C | 0.8 °C | 0 °C | 3.3 °C
Nc1cc2ncnc(Nc3cccc(Br)c3)c2cc1N | 3.2 °C | 0 °C | 1.2 °C | 0.1 °C | 2.5 °C | 2.7 °C | 0.5 °C | 3.3 °C | 0.8 °C | -0.4 °C | 2.2 °C | 0.5 °C | -1.4 °C | 2.6 °C | 0.4 °C | 5.7 °C | 3.6 °C | 0.6 °C | 6.1 °C | 3.4 °C
Cc1ccc(NC(=O)c2ccc(CN3CCN(C)CC3)cc2)cc1Nc1nccc(-c2cccnc2)n1 | 0.2 °C | -0.2 °C | 0.5 °C | 2.9 °C | -0.5 °C | 0.2 °C | 0.1 °C | -0.8 °C | 0.3 °C | -0.4 °C | 0.1 °C | -0.4 °C | 1.6 °C | 0.6 °C | -0.5 °C | 1.7 °C | 1 °C | 0.4 °C | 0.8 °C | -0.1 °C
OC[C@H]1O[C@@H](n2cnc3cc(Cl)c(Cl)cc32)[C@H](O)[C@@H]1O | 3.1 °C | -0.2 °C | 0 °C | 1.1 °C | 0 °C | 0.2 °C | -0.1 °C | 0.5 °C | -0.2 °C | -0.3 °C | 0 °C | 0 °C | -0.5 °C | 2.6 °C | 0.2 °C | 0.1 °C | -0.3 °C | -0.9 °C | -0.7 °C | 3.2 °C
O=C(O)Cc1ccc(O)c([N+](=O)[O-])c1 | 0.1 °C | -0.3 °C | 0.3 °C | 0.4 °C | 0.8 °C | 0.4 °C | 0.6 °C | 1.9 °C | 1.2 °C | -1.2 °C | -0.3 °C | 1.1 °C | 0.4 °C | -0.1 °C | 3.3 °C | 0 °C | -0.4 °C | 1.2 °C | 0 °C | 0.2 °C
CN(C)c1ccc(CC2C(=O)Nc3ccccc32)cc1 (stereo not given) | 1.2 °C | 0.1 °C | 0.6 °C | 1.9 °C | 0.3 °C | 4.4 °C | -0.2 °C | -0.5 °C | -0.3 °C | -0.5 °C | 5.5 °C | 0.9 °C | -0.2 °C | 0.4 °C | 0.1 °C | 0.8 °C | 0.7 °C | 0.9 °C | 0.9 °C | -0.2 °C

— ChEMBL document CHEMBL1145498, “A systematic interaction map of validated kinase inhibitors with Ser/Thr kinases” (Proc Natl Acad Sci U S A, 2007)
